From PubChem BioAssay AID493130 (Broad Institute, 2011)
Results filed as inconclusive are left out. Active and inactive are the calls of the source.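 How the source made its calls: active means signal-lowering compounds whose fitted half-maximal concentration is at most ten times their highest tested dose; inconclusive means flat fit between -30 and -70%, or poor fit; inactive means flat within 30%, signal rising, or potency beyond limit.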

Target: POS-1 (Caenorhabditis elegans) binding to mex-3 RNA
Assay: inhibitors of POS-1/mex-3 RNA binding, dose response, counter-screen for MEX-5 RNA-binding inhibitor project, biochemical, fluorescence polarization, cherry-picked samples, set 2 (AID 493130);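 further: POS-1 as maltose binding protein fusion made in E. coli with FITC RNA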
Conditions: POS-1/mex-3 RNA fluorescence polarization, 1 h

| SMILES | AC50 |
| --- | --- |
| Nc1nnc(CC(=O)N/N=C/c2cc([N+](=O)[O-])cc(Br)c2O)s1 | 6.03 µM |
| Cc1ccc(C)n1-c1ccccc1N | 5.78 µM |
| O=C(O)c1ccccc1NS(=O)(=O)c1cccc(-n2sc3ccccc3c2=O)c1 | 8.72 µM |
| Cn1c(=O)c(Nc2ccc(Cl)cc2)c2c3c(cccc31)C(=O)c1ccccc1-2 | 0.907 µM |
| CCc1cc[n+](-c2nc3ccccc3nc2[N-]S(=O)(=O)c2ccc(Br)s2)cc1 | 1.25 µM |
| O=[N+]([O-])c1cc(/C=N\Nc2nccs2)ccc1O | 2.55 µM |
| CN1CC=C2C(C#N)=C(N)C(C#N)(C#N)[C@H](c3cccs3)[C@H]2C1 | 6.12 µM |
| O=C(N/N=C/c1c(O)n(C2CC2)c(=S)[nH]c1=O)c1ccccc1O | 6.64 µM |
| O=C(O[C@@H]1OC2COC(=O)c3cc(O)c(O)c(O)c3-c3c(cc(O)c(O)c3O)C(=O)O[C@@H]([C@H]1O)[C@@H]2O)c1cc(O)c(O)c(O)c1 | 2.27 µM |
| CCC(=O)Oc1ccc2c(c1)O/C(=C\c1ccco1)C2=O | 5.63 µM |
| CC1C(=O)NN=C1C(=O)N/N=C\c1ccc(O)cc1O (centres undefined) | 9.42 µM |
| CC1=C(C#N)C(=O)N(C2CCS(=O)(=O)C2)C(=O)/C1=C\c1ccco1 (centres undefined) | 3.66 µM |
| Cc1ccc(N2C(=O)NC(=O)/C(=C\c3ccc([N+](=O)[O-])o3)C2=O)cc1 | 7.36 µM |
| CN1CCN(c2ccc([N+](=O)[O-])c3no[n+]([O-])c23)CC1 | 3.3 µM |
| CC1CC(=O)c2c(cc3c(-c4c(O)cc(O)c5c(O)c6c(cc45)OC(C)CC6=O)c(O)cc(O)c3c2O)O1 (centres undefined) | 8.29 µM |
| CCn1c(SCc2nc3sc(C(=O)O)c(C)c3c(=O)[nH]2)nc2ccccc21 | 10.3 µM |
| COC(=O)C1=COC(C)C2CN3CCc4c([nH]c5ccccc45)C3CC12 (centres undefined) | 7.17 µM |
| CN1CC=C2C(C#N)=C(N)C(C#N)(C#N)[C@H](c3ccoc3)[C@H]2C1 | 5.4 µM |

Same assay, conditions: POS-1/mex-3 RNA fluorescence polarization, 1 h; at 10 µM (top of the series)

| SMILES | activity change, negative = inhibition |
| --- | --- |
| CCc1nnc(NS(=O)(=O)c2ccc(N=Cc3c(O)n(-c4ccc(Cl)cc4)c(=O)[nH]c3=O)cc2)s1 | inactive |
| COc1ccc(CC(=O)NNC(=O)c2cnccn2)cc1 | inactive |
| CCOc1cc(/C=N/Nc2nc(=O)[nH]nc2C)ccc1O | inactive |
| CC[N+](C)(CC)CCCOC(=O)C(O)(c1ccccc1)C1CCCCC1 (centres undefined) | inactive |
| Nc1ccccc1C(=O)NNC(=O)C(=O)/C=C(\O)c1ccccc1 | inactive |
| CN(N=Nc1ccc([N+](=O)[O-])cc1)c1ccccc1 | inactive |
| Cc1cc(C)c2c3c(sc2n1)C(c1ccccc1)C(C#N)=C(N)O3 (centres undefined) | inactive |
| O=[N+]([O-])c1ccc(/C=N/n2c(CO)nc3ccccc32)s1 | inactive |
| Cc1ccc(C)c(NC(=O)CCC(=O)NNC(=S)Nc2ccccc2)c1 | inactive |
| COCc1cc(C)nc(N/N=C/c2ccc(-c3cc(C(=O)O)ccc3Cl)o2)c1C#N | inactive |
| Cc1ccc(S(=O)(=O)N/N=C/c2ccc(O)c(O)c2)cc1[N+](=O)[O-] | inactive |
| COCCNC(=S)NNC(=O)c1cccs1 | inactive |
| O=C(O)CC1S/C(=N/N=C/c2ccc(-c3ccccc3[N+](=O)[O-])o2)NC1=O (centres undefined) | inactive |
| O=C(NC1CCSc2ccccc21)c1cccc(Br)c1 (centres undefined) | inactive |
| COc1cccc2cc(-c3nc(-c4cccs4)cs3)c(=O)oc12 | inactive |
| COc1ccccc1N1C(=O)C2C(C(=O)c3ccccc3)=NN(c3ccccc3OC)C2C1=O (centres undefined) | inactive |
| CCN(CC)c1ccc(N=Cc2c(O)n(-c3ccccc3C)c(=O)[nH]c2=O)cc1 | inactive |
| O=C1NC(=O)N(Cc2ccccc2)C(=O)/C1=C\c1ccco1 | inactive |
| COc1ccc(NC(=O)/C=C/c2cccc(C(F)(F)F)c2)cn1 | inactive |
| Cc1ccc(C(=O)N/N=C/c2ccc(-c3ccc(Br)cc3[N+](=O)[O-])o2)o1 | inactive |
| O=C1S/C(=C\c2cccs2)C(=O)N1c1ccc(O)cc1 | inactive |
| CCOC(=O)C1Cc2ccccc2C(=O)O1 (centres undefined) | inactive |
| O=c1[nH]cnc2c1C(c1ccc(Cl)cc1)c1c(nc[nH]c1=O)O2 | inactive |
| Cc1ccc(C(=O)N/C(=C\c2ccc(-c3ccc([N+](=O)[O-])cc3)o2)C(=O)NC2CCS(=O)(=O)C2)cc1 (centres undefined) | inactive |
| CCc1ccc(/C=C2/C(=O)N(CC)C(=S)N2C)s1 | inactive |
| Cc1cccc(NC(=O)c2sc3nc4c(c(-c5ccco5)c3c2N)CCC4)c1 | inactive |

| SMILES | activity change, negative = inhibition |
| --- | --- |
| COc1cccc(NCc2cc(=O)oc3cc(C)c(C(C)C)cc23)c1 | inactive |
| Cc1cc(C(=O)N/N=C/c2ccc(-c3ccc(C)c(Cl)c3)o2)n[nH]1 | inactive |
| COc1ccc2c(c1)-c1ccccc1S(=O)(=O)N2C(C)=O | inactive |
| COc1ccccc1OCC(=O)NNC(=O)c1cnccn1 | inactive |
| COC(=O)C1=C(C)OC(N)=C(C#N)C1c1cc(OC)c(OCC(N)=O)cc1Cl (centres undefined) | inactive |
| CCOC(=O)c1c(-c2ccc(C)o2)csc1NC(=S)NC(=O)c1cccs1 | inactive |
| O=C1SC(SCc2ccccc2)=N/C1=C\c1ccc(C(=O)O)cc1 | inactive |
| COc1ccc(C(CC(=O)N2CCCC2)c2c(OC)cc(OC)c3ccc(=O)oc23)cc1 (centres undefined) | inactive |
| COc1cc(CCC(=O)Nc2ccc(Cl)c(C(F)(F)F)c2)cc(OC)c1OC | inactive |
| Cc1c(Cl)cccc1NC(=O)C(=O)NNS(=O)(=O)c1ccc(F)cc1 | inactive |
| Cn1c(O)c(/C=N/NC(=O)c2cc3ccccc3cc2O)c2ccccc21 | inactive |
| Cc1cc2ccccc2n1CCNC(=O)c1ccc(Br)o1 | inactive |
| CC(=O)Nc1ccc2c(c1)C(=O)N(c1cccc(C)c1)C2=O | inactive |
| Cc1ccc2c(c1)-c1ccccc1S(=O)(=O)N2 | inactive |
| Cn1c(C2=C(O)CN(c3ccccc3)C2=N)nc2ccccc21 | inactive |
| CCOC(=O)C(=NC(C)C)NNc1cc(Cl)ccc1Cl | inactive |
| CCCNc1nc2ccccc2n2c(C)nnc12 | inactive |
| CCCc1nc2ccccc2c(=O)n1/N=C/c1ccc(O)c(O)c1 | inactive |
| O=c1c2ccccc2nc(/C=C/c2ccc([N+](=O)[O-])o2)n1-c1ccc(O)cc1 | inactive |
| Cc1sc2ncnc(N/N=C/c3ccccc3O)c2c1C | inactive |
| Oc1cccc(/C=N/NC(=S)Nc2cccnc2)c1O | inactive |
| Cc1ccc(N=Nc2c(O)n(CN3CCOCC3)c3ccccc23)cc1 | inactive |
| Cc1ccc(-c2nc(C=Nc3cccc(C)c3)c(O)o2)cc1 | inactive |
| Cc1nnc(SCc2nc3sc4c(c3c(=O)[nH]2)CCCC4)n(N)c1=O | inactive |
| CCc1cc(-c2n[nH]c(C)c2-c2nc3ccccc3s2)c(O)cc1OCC(=O)NN | inactive |
| O=C1/C(=C\c2ccc(Br)o2)Cc2ccccc21 | inactive |

| SMILES | activity change, negative = inhibition |
| --- | --- |
| CC1CN2C(c3ccc([N+](=O)[O-])cc3)=CSC2=N1 (centres undefined) | inactive |
| CCCCn1c(N)c(N(CCOC)C(=O)c2ccc(Br)o2)c(=O)[nH]c1=O | inactive |
| Cc1cc(C)c2ccc(C(=O)O)nc2c1O | inactive |
| O=C(/C=C/c1ccc(O)c(O)c1)OC1C(O)CC(OC(=O)/C=C/c2ccc(O)c(O)c2)(C(=O)O)CC1O (centres undefined) | inactive |
| CC1CN(c2nc3ccccc3nc2C(C#N)C(=O)NCc2ccc3c(c2)OCO3)CC(C)O1 (centres undefined) | inactive |
| COC(=O)c1ccccc1N=Nc1c(N)n[nH]c1N | inactive |
| CCCCN1C=CC(=C2C(=O)c3ccccc3C2=O)C=C1 | inactive |
| O=C(O)c1ccc(N2Cc3ccccc3C2)cc1O | inactive |
| CSc1ccc(C(c2c(C(=O)O)[nH]c3ccccc23)c2c(C(=O)O)[nH]c3ccccc23)cc1 | inactive |
| O=C(O)c1ccc2cccnc2c1O | inactive |
| CN(N)c1ccc2c(C(F)(F)F)cc(C(F)(F)F)nc2n1 | inactive |
| CS(=O)(=O)c1nsc2nc(=O)c(/C=C3\C=Nc4ccccc43)c(N)n12 | inactive |
| Cn1ccc(=Nc2ccc(NC(=O)c3ccc(N=c4ccn(C)c5ccc([N+](=O)[O-])cc45)cc3)cc2)cc1 | inactive |
| CCc1ccc(N2C(=O)NC(=O)/C(=C/c3cccn3CCOc3ccc(C(C)CC)cc3)C2=O)cc1 (centres undefined) | inactive |
| O=c1[nH]nc(CNc2ccc(Cl)cc2Cl)c2ccccc12 | inactive |
| O=C(O)Cc1c[nH]c2cccc(O)c12 | inactive |
| CC(=O)Nc1ccc(-c2csc(Nc3cccc(C)n3)n2)cc1 | inactive |
| CN1CN(C)c2cccc3cccc1c23 | inactive |
| CC(C)CN1CCN(Cc2cccc3ncccc23)CC1CCO (centres undefined) | inactive |
| CCn1c(C)nc2c1C(=O)c1ccccc1C2=O | inactive |
| COc1cc(/C=N/NC(=O)CNS(=O)(=O)c2ccc(C)cc2)cc(OC)c1OC | inactive |
| Nc1c(NCc2ccccc2)c(=O)[nH]c(=O)n1Cc1ccccc1 | inactive |
| CC(=O)Nc1ccc(/C=N/NC(=O)CNS(=O)(=O)c2ccccc2)cc1 | inactive |
| CN1CCc2c(sc(NC(=O)c3ccc(S(=O)(=O)N4CCCCCC4)cc3)c2C(N)=O)C1 | inactive |
